In test [1] the test system is BGC-823. Nature of the test: Cytotoxicity against human BGC823 cells assessed as reduction in cell viability after 24 hrs by MTT assay. The class given is functional, cell-based.
Test [2] concerns the target T1, Liver carboxylesterase 1 (Homo sapiens, UniProt P23141).
T1 sequence (P23141 whole entry): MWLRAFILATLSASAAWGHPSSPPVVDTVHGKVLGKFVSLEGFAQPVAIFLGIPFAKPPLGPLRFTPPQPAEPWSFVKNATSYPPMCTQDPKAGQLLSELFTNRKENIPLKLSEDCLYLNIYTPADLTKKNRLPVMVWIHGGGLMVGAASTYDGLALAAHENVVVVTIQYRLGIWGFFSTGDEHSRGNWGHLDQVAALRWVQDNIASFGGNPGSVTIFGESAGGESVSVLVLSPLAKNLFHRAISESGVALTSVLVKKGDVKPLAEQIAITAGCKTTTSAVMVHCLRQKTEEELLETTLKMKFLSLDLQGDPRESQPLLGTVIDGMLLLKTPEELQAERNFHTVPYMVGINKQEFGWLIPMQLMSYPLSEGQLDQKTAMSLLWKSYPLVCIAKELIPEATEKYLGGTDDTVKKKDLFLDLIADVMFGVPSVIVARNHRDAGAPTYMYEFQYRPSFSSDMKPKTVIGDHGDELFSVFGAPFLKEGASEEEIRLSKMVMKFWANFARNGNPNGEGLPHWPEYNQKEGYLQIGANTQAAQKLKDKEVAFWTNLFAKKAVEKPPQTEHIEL
Description: Inhibition of human CE1 using D-luciferin methyl ester as substrate preincubated for 10 mins followed by substrate addition and measured after 10 mins by luminescence assay.

In test [3] the test system is Peritoneal macrophage. Nature of the test: Antiinflammatory activity in C57BL/6J mouse Peritoneal macrophages assessed as reduction in LPS-induced TNFalpha secretion after 24 hrs. The class given is functional, cell-based.
Test [4] deals with HCT-8. Description: Cytotoxicity against human HCT8 cells assessed as reduction in cell viability after 24 hrs by MTT assay. Format: functional, cell-based.
Test [5] deals with HepG2. Nature of the test: Cytoprotection activity in human HepG2 cells assessed as reduction in acetaminophen-induced cell injury after 48 hrs by MTT assay. The class given is functional, cell-based.
Test [6] has as its system A549. Description: Cytotoxicity against human A549 cells assessed as reduction in cell viability after 24 hrs by MTT assay. The class given is functional, cell-based. For orientation: Formazan colour is commonly taken as a measure of viable cells.
Test [7] deals with T2, Cocaine esterase (Homo sapiens, UniProt O00748).
T2 sequence (O00748 whole entry): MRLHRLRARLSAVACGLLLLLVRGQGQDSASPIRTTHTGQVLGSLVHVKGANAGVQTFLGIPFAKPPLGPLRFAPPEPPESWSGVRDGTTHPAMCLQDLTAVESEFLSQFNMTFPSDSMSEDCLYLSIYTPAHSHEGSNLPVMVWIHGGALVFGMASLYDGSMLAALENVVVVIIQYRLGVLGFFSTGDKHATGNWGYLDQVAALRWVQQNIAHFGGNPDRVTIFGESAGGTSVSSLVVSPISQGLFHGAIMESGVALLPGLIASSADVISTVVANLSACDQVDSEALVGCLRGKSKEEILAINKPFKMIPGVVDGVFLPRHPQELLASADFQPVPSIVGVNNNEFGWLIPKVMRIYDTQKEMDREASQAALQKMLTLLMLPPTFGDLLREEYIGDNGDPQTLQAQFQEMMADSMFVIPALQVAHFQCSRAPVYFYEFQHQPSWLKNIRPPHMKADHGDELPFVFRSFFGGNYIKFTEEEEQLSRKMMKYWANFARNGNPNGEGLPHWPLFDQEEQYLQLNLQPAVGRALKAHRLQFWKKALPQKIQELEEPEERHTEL
Nature of the test: Inhibition of human CE2 using fluorescein diacetate as substrate preincubated for 10 mins followed by substrate addition and measured after 10 mins by luminescence assay.

The subject of test [8] is Escherichia coli. Description: Antimicrobial activity against Escherichia coli ATCC 25922 assessed as reduction in microbial growth after 24 hrs by CLSI based broth microdilution method. The class given is functional, organism-based.
The subject of test [9] is Staphylococcus aureus. Description: Antimicrobial activity against Staphylococcus aureus ATCC 25923 assessed as reduction in microbial growth after 24 hrs by CLSI based broth microdilution method. Format: functional, organism-based.
For test [10], the target named is T3, Tyrosine-protein phosphatase non-receptor type 1 (Homo sapiens) (UniProt P18031).
T3 sequence (whole entry): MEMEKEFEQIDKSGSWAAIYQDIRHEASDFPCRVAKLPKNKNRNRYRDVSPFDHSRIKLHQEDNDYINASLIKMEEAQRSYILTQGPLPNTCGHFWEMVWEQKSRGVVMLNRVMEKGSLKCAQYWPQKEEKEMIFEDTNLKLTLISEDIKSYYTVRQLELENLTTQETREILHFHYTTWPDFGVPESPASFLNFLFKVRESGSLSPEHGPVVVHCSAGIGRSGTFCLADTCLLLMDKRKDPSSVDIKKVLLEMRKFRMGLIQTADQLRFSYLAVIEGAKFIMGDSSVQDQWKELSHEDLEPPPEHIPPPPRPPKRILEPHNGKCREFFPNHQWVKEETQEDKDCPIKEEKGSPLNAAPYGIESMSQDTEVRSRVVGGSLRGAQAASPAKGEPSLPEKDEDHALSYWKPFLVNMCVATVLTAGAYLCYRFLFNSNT
Nature of the test: Inhibition of recombinant human GST-tagged PTP1B using para-nitrophenyl phosphate as substrate incubated for 10 mins by spectrophotometric method.

Test [11] is filed under the species Homo sapiens. Description: Selectivity ratio of IC50 for inhibition of human CE1 […].
In test [12] the test system is Bel-7402. Nature of the test: Cytotoxicity against human Bel7402 cells assessed as reduction in cell viability after 24 hrs by MTT assay. Format: functional, cell-based.
Test [13] relates to Staphylococcus epidermidis. Nature of the test: Antimicrobial activity against Staphylococcus epidermidis ATCC 12228 assessed as reduction in microbial growth after 24 hrs by CLSI based broth microdilution method. Format: functional, organism-based. In general terms: In broth dilution the organism is exposed to a series of concentrations in liquid medium.
Test [14] concerns A2780. Description: Cytotoxicity against human A2780 cells assessed as reduction in cell viability after 24 hrs by MTT assay. Format: functional, cell-based.
Test [15] concerns Mycolicibacterium smegmatis. Nature of the test: Antimicrobial activity against Mycobacterium smegmatis MC2155 […] assessed as reduction in microbial growth after 24 hrs by CLSI based broth microdilution method. Format: functional, organism-based.

The source made the active and inactive calls. No cut-off for these calls is given here.

On to `COc1cc2c(cc1OC)C([C@](C)(OC)c1ccc(OC)c(OC)c1O)=NCC2`, for which the result in test [1], in test [3], in [4], in [5], in test [6] and in test [8] was inactive. The outcome in test [9], in [12], in test [13], in [14] and in test [15] was inactive. The IC50 in test [2] was over 100 µM; in test [7] it was 5 µM. Also, the inhibition entry in [10] was “inactive”. In addition, in test [11], the Ratio IC50 was 20.
Turning to `COc1cc2cc[n+]3c(c2cc1OC)[C@@](C)(O)c1ccc(OC)c(OC)c1C3`, the outcome in test [1], in test [3], in [4], in [5], in test [6] and in [8] was inactive. Further, the outcome in test [9], in test [12], in test [13], in test [14] and in test [15] was inactive. Moreover, the IC50 in [2] is over 100 µM; in test [7] it was 4.6 µM. In addition, the inhibition result in test [10] was “inactive”. Besides, the Ratio IC50 in [11] was 21.8.
For the compound `COc1cc2cc[n+]3c(c2cc1OC)[C@](C)(O)c1ccc(OC)c(OC)c1C3`, the outcome in test [1], in [3], in [4], in [5], in test [6] and in test [8] was inactive. Moreover, the result in test [9], in test [12], in test [13], in test [14] and in [15] was inactive. The results for the IC50 in test [2] and in test [7] were over 100 µM and 13.2 µM, respectively. The inhibition entry in [10] is “inactive”. Besides, the Ratio IC50 in test [11] turned out to be 7.6.

As usually defined, the IC50 is the concentration needed to halve the response being measured.

Values taken from ChEMBL document CHEMBL4602685, “Yanhusanines A-F, Isoquinoline-Derived Alkaloid Enantiomers from Corydalis yanhusuo and Their Biological Activity” (J Nat Prod, 2020).
